Results reported in patent publication US8952033B2, “4-anilinofuro[2,3-b]quinoline derivatives, their preparation processes, and pharmaceutical compositions comprising the same” (Kaohsiung Medical University, priority 2011, dated 2015).

How the values were obtained:
[1] = system: AGS (human stomach adenocarcinoma cell); experiment: Preferential antiproliferative activity, AGS; assay type: cell-based
Description: (§1) Determination of GI50 of compounds 13a, 13c, 14a, 14c, 15a, 16a was conducted substantially according to the method as described in the preceding section A entitled “Evaluation of antiproliferative activity”, except that the normal cell line MRC-5 was also utilized, and that camptothecin and daunorubicin were tested instead of compounds 1, 2, 3. The concentration of the respective test compound, which can reduce absorbance by 50% (compared with DMSO), is regarded as GI50, and can be determined via dose-response curves. Determination of GI50 was conducted thrice for each test compound. GI50 is expressed as mean±SD.
(§2) SI stands for selectivity index and was calculated by substituting GI50 into the following formula: D=E/F (2) where • D=SI • E=GI50 of the respective test compound for cells of the normal cell line • F=GI50 of the respective test compound for cells of the cancer cell line The experimental results are summarized in Table 4. […]

[2] = system: MCF-7 (breast cancer cell); experiment: MTT antiproliferative assay (cell growth %, GI50), MCF-7; assay type: cell-based
Method in brief: (§3)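 Cells exposed to compounds in DMSO or vehicle for 48 hours; MTT (2 mg/mL) added before and after treatment for 2 hours, formazan dissolved in DMSO and OD570 read. GI50 from three determinations, reported as mean±SD.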

[3] = system: HeLa (human cervical epithelioid carcinoma cell); experiment: Preferential antiproliferative activity, HeLa; assay type: cell-based
Description: as §1, §2

[4] = system: SF-268 (central nervous system carcinoma cell); experiment: MTT antiproliferative assay (cell growth %, GI50), SF-268; assay type: cell-based
Description: (§4) Antiproliferative activities of the compounds of this invention were evaluated substantially according to the method as described in Tseng, C. […] The cells were treated with the test compounds, i.e., the compounds of this invention (in dimethylsulfoxide (DMSO)), or DMSO for 48 hours.
(§5) Before and after the treatment with the test compounds or DMSO, 3-(4,5-dimethylthiazol-2-yl)-2,5-diphenyltetrazolium bromide (MTT, 2 mg/mL, 100 μL) was added to each of the cultures, followed by cultivation for 2 hours. The resultant formazan was dissolved by the addition of DMSO. Absorbance at 570 nm (OD570) was measured using a microtiter plate reader (Dynex MRX-II).
(§6) Determination of GI50 was conducted thrice for each test compound. GI50 is expressed as mean±SD.

[5] = system: NCI-H460 (non-small cell lung carcinoma cell); experiment: MTT antiproliferative assay (cell growth %, GI50), NCI-H460; assay type: cell-based
Method in brief: as §3

[6] = system: NCI-H1299 (non-small cell lung carcinoma cell); experiment: Preferential antiproliferative activity, NCI-H1299; assay type: cell-based
Description: as §1, §2

[7] = system: MRC-5 (human lung fibroblast cell); experiment: GI50 determination on normal cell line MRC-5; assay type: cell-based; settings: MRC5, normal cell line, mean±SD, read-out: GI50 MRC-5
Description: as §4, §5, §6

NCI-H460 cells = experiment: In vivo inhibition of lung cancer cells, NCI-H460 tumor in nude mice; parameters: species or system Balb/C athymic nude mice; settings: for Survival rate: Day 80 (control all dead)
Description: 10^6 NCI-H460 cells were mixed evenly with a proper amount of Matrigel (BD Biosciences). The resultant mixture was injected subcutaneously into each of the nude mice on a dorsal flank close to an upper portion of a hind leg.
The nude mice bearing a tumor were randomly divided into two groups. The first group (n=14) of the nude mice was used to evaluate the effect of compound 13a after intraperitoneal injection, and was further divided into three subgroups including 10 mg/kg group (n=4), 20 mg/kg group (n=6), and a control group (n=4). Compound 13a (in DMSO/Tween 80/PBS (1/1/8, v/v/v)) was administered to the nude mice in 10 mg/kg group and 20 mg/kg group respectively at a dose of 10 mg/kg and a dose of 20 mg/kg via intraperitoneal injection, and 5% dextrose was administered to the nude mice in the control group at the same dosing volume as compound 13a via intraperitoneal injection.
The second group (n=28) of the nude mice was used to evaluate the effect of compound 13a after oral administration, and was further divided into three subgroups including 60 mg/kg group (n=10), 120 mg/kg group (n=10), and a control group (n=8). Compound 13a (in a normal saline solution containing 1% DMSO, 1.4% Tween 80, and 1% sodium carboxymethyl cellulose (Sigma), and serving as a vehicle) was administered to the nude mice in 60 mg/kg group and 120 mg/kg group respectively at a dose of 60 mg/kg and a dose of 120 mg/kg via tube feeding (0.22-0.26 mL of the mixture of compound 13a and the vehicle/nude mouse), and the vehicle was administered to the mice in the control group at a dose of 10 mL/kg via tube feeding.
Administration was conducted once daily for 6 consecutive days. For the first group of the nude mice, the size of the tumor on the dorsal flank was measured with calipers every 9 days for 100 consecutive days. For the second group of the nude mice, the survival rate was calculated every 10 days starting on Day 1 (i.e., the day of the […] administration) for 80 consecutive days, and the size of the tumor on the dorsal flank was measured with the calipers every 3 days for 32 consecutive days.

[8] = system: SKHep-1 (hepatocellular carcinoma cell); experiment: Preferential antiproliferative activity, SKHep; assay type: cell-based
Description: as §1, §2

## C/C(=N\OCCN)c1ccc(Nc2c3ccccc3nc3occc23)cc1 [Compound 13a, (E)-1-(4-(furo[2,3-b]quinolin-4-ylamino)phenyl)ethanone O-2-aminoethyl oxime]
[1]; Homo sapiens, mean±SD
  GI50: 13.77 ± 0.04 µM
[1]; versus MRC-5
  SI AGS: 3.09
[2]; GI50 MRC-5 / GI50 MCF-7
  SI MCF-7: 4.59
[2]; Homo sapiens, MCF7, 4 mg/ml, 48 hours, MTT
  activity at 4000 µg/mL: 66%
[2]; Homo sapiens, MCF7, 20 mg/ml, 48 hours, MTT
  activity at 20000 µg/mL: -1%
[2]; Homo sapiens, MCF7, mean±SD, read-out: GI50 MCF-7
  GI50: 9.34 ± 0.92 µM
[3]; Homo sapiens, HeLa, mean±SD
  GI50: 8.31 ± 0.6 µM
[3]; versus MRC-5
  SI HeLa: 5.16
[4]; GI50 MRC-5 / GI50 SF-268
  SI SF-268: 6.84
[4]; Homo sapiens, SF-268, mean±SD, read-out: GI50 SF-268
  GI50: 6.26 ± 1.02 µM
[5]; GI50 MRC-5 / GI50 NCI-H460
  SI NCI-H460: 68.02
[5]; Homo sapiens, NCI-H460, 4 mg/ml, 48 hours, MTT
  activity at 4000 µg/mL: 33%
[5]; Homo sapiens, NCI-H460, 20 mg/ml, 48 hours, MTT
  activity at 20000 µg/mL: -1%
[5]; Homo sapiens, NCI-H460, mean±SD, read-out: GI50 NCI-H460
  GI50: 0.63 ± 0.03 µM
[6]; Homo sapiens, NCI-H1299, mean±SD
  GI50: 3.08 ± 1.12 µM
[6]; versus MRC-5
  SI NCI-H1299: 13.91
[7]
  GI50: 42.9 ± 1.05 µM
NCI-H460 cells; intraperitoneal injection, 10 mg/kg and 20 mg/kg once daily for 6 days, versus control
  Size of the tumor: generally grew more slowly with time
NCI-H460 cells; oral administration, 60 mg/kg and 120 mg/kg once daily for 6 days, versus control
  Size of the tumor: generally grew more slowly with time
NCI-H460 cells; oral administration, 60 mg/kg group
  Survival rate: 50%
NCI-H460 cells; oral administration, 120 mg/kg group
  Survival rate: 50%
NCI-H460 cells; oral administration, 120 mg/kg once daily for 6 days
  Size of the tumor: diminished in size after Day 16
[8]; Homo sapiens, SK-HEP1, mean±SD
  GI50: 13.1 ± 3.75 µM
[8]; versus MRC-5
  SI SKHep: 3.26
